The values that follow come from US6642003B2, “Human glucose-dependent insulin-secreting cell line” (Cedars-Sinai Medical Center, priority 2001, dated 2003).

In experiment [1] the test system is PANC-1 cells. Kind of experiment: Immunofluorescence for IDX-1, parental PANC-1 cells. The class given is cell-based, human. The conditions noted are these: vehicle alone or GLP-1. The procedure: (§1) Cells were cultured on monocoated chamber slides (Nalge Nunc International; Naperville, Ill.) in the presence of GLP-1 (10 nM), or vehicle, for 72 h.
For the detection of IDX-1, slightly different conditions were used. Briefly: the concentration of paraformaldehyde was decreased to 2%, and the concentration of Triton to permeabilize the cells was raised to 0.2% Triton-X-100. Cells were then washed with 0.01 M PBS three times for 3-5 min, and non-specific binding was inhibited by using 5% chick serum in 0.01 M PBS, at room temperature for 60 min in a humid chamber. A rabbit IDX-1 antibody directed against the N-terminus of the frog homologue of the IDX-1 gene was used as the primary antibody (1:500 diluted with 0.1% Triton-X 100, 1% BSA in 0.01 M PBS), and slides were incubated at 4° C. overnight in a humid chamber. After washing, cells were incubated with a fluorescein-conjugated goat anti-rabbit IgG antibody (Molecular Probes, Inc. Eugene, Oreg.) and incubated at room temperature for 1 hour in a humid chamber. Nuclei of cells stained with anti-IDX-1 antibody were visualized with Hoechst […] dye (Sigma, St. Louis, Mo.). The percentage of IDX-1 containing cells was evaluated by counting the number of IDX-1 “positive” cells divided by the total number of cells identified by nuclear staining.

Experiment [2] concerns ARIP cells. Kind of experiment: Flow cytometric (FACS) analysis for insulin, ARIP cells. It is filed as cell-based, rat. The conditions noted are these: GLP-1 10 nM, 72 hours. As for the experimental part:
For fluorescence-activated cells sorting (FACS) analysis, cells were cultured in the presence of GLP-1 (10 nM), or vehicle, for 72 h, then washed with cold PBS (pH 7.4; three times) and incubated overnight, on ice, in PBS with 2% paraformaldehyde. After centrifugation, the cell pellet was resuspended in 400 μl of cold 0.1% Triton diluted in FACS buffer (PBS with 2% FCS). After several centrifugation and washes, the cells were resuspended in the assay buffer with of 10 μl of fluorescent-conjugated insulin antibody (Cat N. FM205, FITC: Chromaprobe, Inc; Mountain View, Calif.), in the presence of 10 μl of blocking antibody (anti-mouse IgG; Organon Teknika-Cappel, West Chester, Pa.). Control samples were treated with PBS, without the primary antibody, and then incubated with an […] FITC-conjugated control antibody (murine IgG; Chromaprobe Inc., Mountain View, Calif.). Flow cytometric analysis was performed with a FACScan[R] cytometer, using the LYSYS II program, and by fluorescence microscopy, as is well known in the art. See, e.g., E. Elstner, M. Linker-Israeli, J. Le, T. Umiel, P. Michl, J. W. Said, L. Binderup, J. C. […]

Experiment [3] deals with PANC-1 cells. Kind of experiment: Immunocytochemistry for insulin, parental PANC-1 cells. The conditions noted are these: presence or absence of GLP-1. It is filed as cell-based, human. The procedure:
as §1
(§2) For the detection of insulin, cells were washed and fixed with 3% paraformaldehyde for 4 h, at room temperature in PBS, solubilized with 0.1% (vol/vol) Triton X-100 in PBS for 5 min. Cells were then incubated sequentially with an anti-insulin antibody and a secondary antibody, as described by the manufacturer (Biomeda Corp.; Foster City, Calif.). The cells were examined using a Ziess Axiophoto microscope (New York, N.Y.).

The test system of a further experiment is PANC-1/IDX-1 cells. Kind of experiment: Insulin release into culture medium (RIA), PANC-1 cells transfected with human IDX-1. It is filed as cell-based. As for the experimental part:
Rat (ARIP) and human (PANC-1) ductal cell lines were respectively a gift from Dr. J. M. Egan (National Institute on Aging, Baltimore, Md.) or purchased from ATCC (American Type Culture Collection; Manassas, Va.). ARIP cells were cultured in F12 medium (Gibco-BRL, Gaithersburg; Md.) containing 100 μg/ml penicillin, 50 μg/ml streptomycin and 10% fetal calf serum (FCS; Gibco-BRL) at 37° C. under a humidified condition of 95% air and 5% CO2. PANC-1 cells were cultured in DMEM medium supplemented with antibiotics and FCS, as indicated for F12 medium. Treatment with human GLP-1 (H-6795, Bachem; King of Prussia, Pa.) was carried out using cells grown to 80% of confluence, after washing the cell layer with serum-free medium and a “wash-out” incubation for 6-h with serum free medium. To determine dose response to GLP-1, cells were cultured with fresh serum-free medium containing increasing concentration of GLP-1 (0.1, 1, 10, 20 nM), or vehicle alone. At the completion of the experiment, media and cells were collected. To determine the time course of response, cells were cultured in serum-free medium with GLP-1 (10 nM) for 0, 12, 24, 48, 72 or 96 h. Control dishes were cultured with vehicle alone, or with the peptide receptor antagonist of GLP-1, Exendin-9 (100 nM) for 72 h (gift Dr. J. M. Egan). The glucose concentration in the culture medium was 12 mM for both cell lines.
PANC-1 cells were transfected with a pcDNA3 construct (Invitrogen; Carlsbad, Calif.) harboring the wild-type full-length IDX-1 cDNA using LipoTAXI (Catalog N. 204110; Mammalian Transfection Kit, Stratagene; La Jolla, Calif.). Control cells were transfected with the vector alone. The selection of positive (i.e. transfected) cells was carried out by culturing the cells in the presence of 400 μg/ml of G418 sulfate (GN-04, Omega; Tarzana, Calif.).
PANC-1 (parental, IDX-1-transfected, and neomycin-transfected) cells and ARIP (only parental) cells were plated at density of 10^6 cells/well in a 6 well plate. Once the cells reached 80% of confluence, they were washed with serum-free medium containing 12 mM glucose and exposed to fresh serum-free medium for increasing length of time (0, 12, 24, 48, 72, 96 h) in the presence of various concentrations of GLP-1 (0.1, 1, 10, 20 nM) or vehicle. Glucose-dependent insulin secretion was evaluated by culturing the cells in the presence of a determined concentration of GLP-1 (10 nM for 72 h) with increasing concentration of glucose in the culture medium ([…]). Insulin released into the medium was measured by RIA (Linco Research Inc.; St. Charles, Mass.). Total insulin accumulation in the culture medium was then normalized for total cellular protein content per each Individual cultures.
(§3) Total cellular protein content was measured by utilizing the Bradford method (Bio-Rad; Richmond, Calif.). The amount of proteins measured was used as a correction factor for determining the relative amount of medium to be assayed for each individual RIA for insulin.

Experiment [4] relates to ARIP cells. Kind of experiment: Immunocytochemistry for insulin, ARIP cells. It is filed as cell-based, rat. The conditions noted are these: GLP-1 10 nM, 72 h. The procedure:
as §1, §2

In experiment [5] the test system is PANC-1 cells. Kind of experiment: Insulin release into culture medium (RIA), parental PANC-1 cells. It is filed as cell-based, human. The procedure: Rat (ARIP) and human (PANC-1) ductal cell lines were respectively a gift from Dr. J. M. Egan (National Institute on Aging, Baltimore, Md.) or purchased from ATCC (American Type Culture Collection; Manassas, Va.). ARIP cells were cultured in F12 medium (Gibco-BRL, Gaithersburg; Md.) containing 100 μg/ml penicillin, 50 μg/ml streptomycin and 10% fetal calf serum (FCS; Gibco-BRL) at 37° C. under a humidified condition of 95% air and 5% CO2. PANC-1 cells were cultured in DMEM medium supplemented with antibiotics and FCS, as indicated for F12 medium. […]
PANC-1 (parental, IDX-1-transfected, and neomycin-transfected) cells and ARIP (only parental) cells were plated at density of 10^6 cells/well in a 6 well plate. […] Glucose-dependent insulin secretion was evaluated by culturing the cells in the presence of a determined concentration of GLP-1 (10 nM for 72 h) with increasing concentration of glucose in the culture medium ([…]). Insulin released into the medium was measured by RIA (Linco Research Inc.; St. Charles, Mass.). […]
as §3

glucagon-like peptide-1 [GLP-1]: the IDX-1 staining entry in the experiment on PANC-1 cells [1] is given as “No positive IDX-1 staining”. Further, the “cells reacting with anti-human insulin antibody” value in the experiment with ARIP cells [2] stood at 72.6%. The results for the insulin immunostaining entry with PANC-1 cells [3] and in the experiment on ARIP cells [4] were “No positive insulin immunostaining” and “positive immunoreactivity for insulin”, respectively. In addition, the “lowest concentration of glucose required to induce the secretion of insulin” value in the experiment with PANC-1/IDX-1 cells (GLP-1 10 nM for 72 h) was determined as 3 mM. Further, in the experiment on PANC-1/IDX-1 cells (GLP-1 10 nM for 72 h, increasing glucose), the “glucose dependence of insulin release” value is on record as “release insulin in a glucose-dependent manner”. Also, the “time of peak insulin secretion” value in the experiment with PANC-1/IDX-1 cells (GLP-1 10 nM, 12 mM glucose) is on record as not above 48 h. The “time of plateau of insulin secretion” value with PANC-1/IDX-1 cells (GLP-1 10 nM, 12 mM glucose) is reported as 72 h. Besides, the “concentration of GLP-1 required to induce insulin secretion” value in the experiment on PANC-1/IDX-1 cells (serum-free medium, 12 mM glucose, 72 h) was 1 nM. In the experiment on PANC-1 cells [5] (parental PANC-1, 12 mM glucose, various GLP-1 concentrations), the “insulin secretion in response to GLP-1” value is listed as “did not secrete insulin”. The “insulin secretory response with increasing glucose” value in the experiment with PANC-1 cells [5] (wild-type PANC-1, GLP-1 10 nM for 72 h, data not shown) is “No insulin secretory response”.
